Data on 5 molecules can be found in ChEMBL document CHEMBL2331130, “Synthesis and antibacterial activity of 9-oxime ether non-ketolides, and novel binding mode of alkylides with bacterial rRNA” (2013).

Converted amounts (≈) assume the structure as drawn.

Holding throughout (assay type): functional
For test [1], the system named is Staphylococcus epidermidis. The test can be described thus: Antibacterial activity against methicillin-susceptible, MLS-resistant (inducible) Staphylococcus epidermidis E1 by broth microdilution method. (Dilution methods test growth across graded concentrations, often in twofold steps.)
The subject of test [2] is Streptococcus dysgalactiae. The test can be described thus: Ratio of telithromycin MIC to compound MIC for erythromycin-resistant Streptococcus dysgalactiae A1 by broth microdilution method.
Test [3] relates to Streptococcus pyogenes. The test can be described thus: Antibacterial activity against erythromycin-susceptible Streptococcus pyogenes A3 by broth microdilution method.
The test system of test [4] is Staphylococcus aureus. The test can be described thus: Ratio of telithromycin MIC to compound MIC for methicillin-resistant, […], MLS-resistant (constitutive) Staphylococcus aureus PU 19 by broth microdilution method.
Test [5] deals with Streptococcus pyogenes. The test can be described thus: Ratio of telithromycin MIC to compound MIC for MLS-resistant (constitutive) Streptococcus pyogenes A2 by broth microdilution method.
Test [6] has as its system Streptococcus pneumoniae. The test can be described thus: Antibacterial activity against penicillin-susceptible Streptococcus pneumoniae PU09 harboring mef gene by broth microdilution method.
In test [7] the test system is Staphylococcus epidermidis. The test can be described thus: Antibacterial activity against methicillin-resistant, coagulase-negative, MLS-resistant (inducible) Staphylococcus epidermidis E3 by broth microdilution method.
Test [8] concerns Staphylococcus aureus. The test can be described thus: Antibacterial activity against erythromycin-susceptible Staphylococcus aureus ATCC 29213 by broth microdilution method.
Test [9] relates to Staphylococcus epidermidis. The test can be described thus: Ratio of telithromycin MIC to compound MIC for methicillin-resistant, coagulase-negative, MLS-resistant (inducible) Staphylococcus epidermidis E3 by broth microdilution method.
In test [10] the test system is Streptococcus dysgalactiae. The test can be described thus: Antibacterial activity against erythromycin-resistant Streptococcus dysgalactiae A1 by broth microdilution method.
The test system of test [11] is Streptococcus pyogenes. The test can be described thus: Antibacterial activity against MLS-resistant (constitutive) Streptococcus pyogenes A2 by broth microdilution method.
Test [12] deals with Staphylococcus aureus. The test can be described thus: Antibacterial activity against methicillin-resistant, […], MLS-resistant (constitutive) Staphylococcus aureus PU 19 by broth microdilution method.
Test [13] relates to Streptococcus pneumoniae. The test can be described thus: Antibacterial activity against MLS-resistant (constitutive), penicillin-resistant Streptococcus pneumoniae PU11 by broth microdilution method.
Test [14] deals with Streptococcus pneumoniae. The test can be described thus: Antibacterial activity against erythromycin-susceptible Streptococcus pneumoniae ATCC 49619 by broth microdilution method.
Test [15] relates to Staphylococcus aureus. The test can be described thus: Antibacterial activity against methicillin-resistant, MLS-resistant (inducible) Staphylococcus aureus PU 32 by broth microdilution method.
Test [16] concerns Staphylococcus epidermidis. The test can be described thus: Antibacterial activity against methicillin-resistant, MLS-resistant (constitutive) Staphylococcus epidermidis E2 by broth microdilution method.
Test [17] concerns Staphylococcus aureus. The test can be described thus: Antibacterial activity against methicillin-susceptible, MLS-resistant (inducible) Staphylococcus aureus PU 64 by broth microdilution method.
Test [18] deals with Streptococcus pneumoniae. The test can be described thus: Antibacterial activity against MLS-resistant (constitutive), penicillin-susceptible Streptococcus pneumoniae PU27 by broth microdilution method.
Test [19] relates to Staphylococcus aureus. The test can be described thus: Antibacterial activity against methicillin-resistant, MLS-resistant (constitutive) Staphylococcus aureus PU 20 by broth microdilution method.

As a reminder, the MIC is the smallest concentration in the dilution series that meets the test's criterion for growth inhibition. A lower MIC goes with inhibition by little substance.

With `CC[C@H]1OC(=O)[C@H](C)C(=O)[C@H](C)[C@@H](O[C@@H]2O[C@H](C)C[C@H](N(C)C)[C@H]2O)[C@](C)(OC)C[C@@H](C)/C(=N\OC/C=C/c2cnc3ccccc3c2)[C@H](C)[C@H]2OC(=O)O[C@@]21C`, the MIC in test [1] is 8 µg/mL (≈ 10.1 µM); in the test on Streptococcus pyogenes [3] it was 0.032 µg/mL (≈ 0.0402 µM); against Streptococcus pneumoniae [6], 1 µg/mL (≈ 1.26 µM); in test [7] it was 2 µg/mL (≈ 2.51 µM); in the test with Staphylococcus aureus [8], 0.5 µg/mL (≈ 0.628 µM); in test [10], 0.5 µg/mL (≈ 0.628 µM). Besides, the MIC against Streptococcus pyogenes [11] was found to be 32 µg/mL (≈ 40.2 µM); against Staphylococcus aureus [12], 64 µg/mL (≈ 80.4 µM); with Streptococcus pneumoniae [13] it was 64 µg/mL (≈ 80.4 µM); against Streptococcus pneumoniae [14], 0.125 µg/mL (≈ 0.157 µM); with Staphylococcus aureus [15], 1 µg/mL (≈ 1.26 µM); in [16] it was 128 µg/mL (≈ 161 µM). In addition, the Ratio (in test [2]; in the test with Staphylococcus aureus [4]; in the test on Streptococcus pyogenes [5]; in [9]) was 4 each time.

For `CC[C@H]1OC(=O)[C@H](C)[C@@H](O[C@H]2C[C@@](C)(OC)[C@@H](O)[C@H](C)O2)[C@H](C)[C@@H](O[C@@H]2O[C@H](C)C[C@H](N(C)C)[C@H]2O)[C@](C)(OC)C[C@@H](C)C(=O)[C@H](C)[C@@H](O)[C@]1(C)O` [CLARITHROMYCIN], the MIC was greater than 256 µg/mL against Staphylococcus aureus [17]; greater than 256 µg/mL in test [1]; greater than 256 µg/mL in the test on Streptococcus pneumoniae [18]; no more than 0.008 µg/mL against Streptococcus pyogenes [3]; greater than 256 µg/mL in the test with Streptococcus pneumoniae [6]; greater than 256 µg/mL in test [7]. In addition, the MIC in the test with Staphylococcus aureus [8] was 0.5 µg/mL (≈ 0.668 µM); against Staphylococcus aureus [19], greater than 256 µg/mL; in [10], 16 µg/mL (≈ 21.4 µM); against Streptococcus pyogenes [11] it was greater than 256 µg/mL; with Staphylococcus aureus [12], greater than 256 µg/mL; in the test with Streptococcus pneumoniae [13] it was greater than 256 µg/mL. Further, the MIC against Streptococcus pneumoniae [14] was 0.032 µg/mL (≈ 0.0428 µM); against Staphylococcus aureus [15], greater than 256 µg/mL; in [16], greater than 256 µg/mL.

Take `CC[C@H]1OC(=O)[C@H](C)[C@@H](O)[C@H](C)[C@@H](O[C@@H]2O[C@H](C)C[C@H](N(C)C)[C@H]2O)[C@](C)(OC)C[C@@H](C)/C(=N\OC/C=C/c2cnc3ccccc3c2)[C@H](C)[C@H]2OC(=O)O[C@@]21C`: the MIC with Staphylococcus aureus [17] is 256 µg/mL (≈ 321 µM); in test [1] it was 128 µg/mL (≈ 160 µM); against Streptococcus pneumoniae [18] it was 64 µg/mL (≈ 80.2 µM); against Streptococcus pyogenes [3] it was 8 µg/mL (≈ 10 µM); in the test on Streptococcus pneumoniae [6] it was 4 µg/mL (≈ 5.01 µM); in test [7], greater than 256 µg/mL. Also, the MIC in the test on Staphylococcus aureus [8] is 128 µg/mL (≈ 160 µM); against Staphylococcus aureus [19] it was greater than 256 µg/mL; in test [10] it was 16 µg/mL (≈ 20.1 µM); with Streptococcus pyogenes [11], 64 µg/mL (≈ 80.2 µM); against Staphylococcus aureus [12] it was greater than 256 µg/mL; against Streptococcus pneumoniae [13], 64 µg/mL (≈ 80.2 µM). Besides, the MIC was 4 µg/mL (≈ 5.01 µM) in the test with Streptococcus pneumoniae [14], 128 µg/mL (≈ 160 µM) against Staphylococcus aureus [15] and greater than 256 µg/mL in [16].

For `CC[C@H]1OC(=O)[C@H](C)[C@@H](O)[C@H](C)[C@@H](O[C@@H]2O[C@H](C)C[C@H](N(C)C)[C@H]2O)[C@](C)(OC)C[C@@H](C)/C(=N\OCCCc2cncc3ccccc23)[C@H](C)[C@H]2OC(=O)O[C@@]21C`, the MIC is 256 µg/mL (≈ 320 µM) in the test on Staphylococcus aureus [17]; greater than 256 µg/mL in [1]; 32 µg/mL (≈ 40 µM) with Streptococcus pneumoniae [18]; 4 µg/mL (≈ 5 µM) against Streptococcus pyogenes [3]; 8 µg/mL (≈ 10 µM) with Streptococcus pneumoniae [6]; greater than 256 µg/mL in [7]. Moreover, the MIC with Staphylococcus aureus [8] was greater than 256 µg/mL; in the test on Staphylococcus aureus [19] it was greater than 256 µg/mL; in test [10], 16 µg/mL (≈ 20 µM); with Streptococcus pyogenes [11], 32 µg/mL (≈ 40 µM); in the test with Staphylococcus aureus [12], greater than 256 µg/mL; against Streptococcus pneumoniae [13], 32 µg/mL (≈ 40 µM). For the same molecule, the results for the MIC (against Streptococcus pneumoniae [14]; with Staphylococcus aureus [15]; in [16]) were 8 µg/mL (≈ 10 µM), greater than 256 µg/mL and greater than 256 µg/mL, respectively.

Consider `CC[C@H]1OC(=O)[C@H](C)[C@@H](OC(=O)Cc2cccnc2)[C@H](C)[C@@H](O[C@@H]2O[C@H](C)C[C@H](N(C)C)[C@H]2O)[C@](C)(OC)C[C@@H](C)/C(=N\OCC#Cc2cncc3ccccc23)[C@H](C)[C@H]2OC(=O)O[C@@]21C`, for which the MIC was 32 µg/mL (≈ 35 µM) against Staphylococcus aureus [17]; greater than 256 µg/mL in test [1]; 64 µg/mL (≈ 69.9 µM) against Streptococcus pneumoniae [18]; 1 µg/mL (≈ 1.09 µM) in the test with Streptococcus pyogenes [3]; 8 µg/mL (≈ 8.74 µM) with Streptococcus pneumoniae [6]; greater than 256 µg/mL in test [7]. Also, the MIC with Staphylococcus aureus [8] was 32 µg/mL (≈ 35 µM); in the test with Staphylococcus aureus [19] it was greater than 256 µg/mL; in [10], 8 µg/mL (≈ 8.74 µM); with Streptococcus pyogenes [11] it was 64 µg/mL (≈ 69.9 µM); against Staphylococcus aureus [12] it was greater than 256 µg/mL; with Streptococcus pneumoniae [13], 64 µg/mL (≈ 69.9 µM). The results for the MIC (in the test on Streptococcus pneumoniae [14]; against Staphylococcus aureus [15]; in test [16]) were 1 µg/mL (≈ 1.09 µM), 64 µg/mL (≈ 69.9 µM) and greater than 256 µg/mL, respectively.
